Values quoted from earlier work as cited in US20200020419A1, “METHODS OF ANALYZING CELLS” (Flagship Pioneering Innovations VI, LLC., priority 2018, published 2020).

Compound | induction of transition of a mouse progenitor cell into a mouse neuron, known in the literature (mouse “progenitor” cell) | induction of transition of a MEF into a mouse progenitor cell, known in the literature (MEF)
Cc1ccc(-c2nn(C(C)(C)C)c3ncnc(N)c23)cc1 [PP1] | known in the literature to be associated with induction of transition of a mouse “progenitor” cell into a mouse neuron | 
CC(/C=C/C(=O)NO)=C\[C@@H](C)C(=O)c1ccc(N(C)C)cc1 [Trichostatin A] |  | known in the literature to be associated with induction of transition of a MEF into a mouse “progenitor” cell
CC(C)(C)n1nc(-c2ccc(Cl)cc2)c2c(N)ncnc21 [PP2] | known in the literature to be associated with induction of transition of a mouse “progenitor” cell into a mouse neuron | 
